Experimental data from ChEMBL document CHEMBL5465560, “Selectivity Literature for EUbOPEN Chemogenomic Library” (2024).

What was measured:
[1] = biological target: Phosphatidylinositol 3-kinase catalytic subunit type 3 (Homo sapiens, UniProt Q8NEB9); assay: Selectivity interaction (ProQinase) EUB0000171b PIK3C3
[2] = biological target: Myosin light chain kinase, smooth muscle (Homo sapiens, UniProt Q15746); assay: Selectivity interaction (KinomeScan (DiscoverX)) EUB0001079a MYLK; settings: at 1 µM
[3] = biological target: Transcription intermediary factor 1-alpha (Homo sapiens) (UniProt O15164); assay: Selectivity interaction (Human bromodomain panel (DSF assay)) EUB0000233b TRIM24
[4] = biological target: Cyclin-dependent kinase 5/CDK5 activator 1 (Homo sapiens) (UniProt Q00535+Q15078); assay: Selectivity interaction (Kinase panel (Z-LYTE Assay)) EUB0001632a CDK5; assay type: protein-complex assay; settings: at 10 µM
[5] = biological target: T1, Megakaryocyte-associated tyrosine-protein kinase (Homo sapiens) (UniProt P42679); assay: Selectivity interaction (Kinase panel (Z-LYTE Assay)) EUB0001632a MATK; settings: at 10 µM
T1 sequence (whole entry): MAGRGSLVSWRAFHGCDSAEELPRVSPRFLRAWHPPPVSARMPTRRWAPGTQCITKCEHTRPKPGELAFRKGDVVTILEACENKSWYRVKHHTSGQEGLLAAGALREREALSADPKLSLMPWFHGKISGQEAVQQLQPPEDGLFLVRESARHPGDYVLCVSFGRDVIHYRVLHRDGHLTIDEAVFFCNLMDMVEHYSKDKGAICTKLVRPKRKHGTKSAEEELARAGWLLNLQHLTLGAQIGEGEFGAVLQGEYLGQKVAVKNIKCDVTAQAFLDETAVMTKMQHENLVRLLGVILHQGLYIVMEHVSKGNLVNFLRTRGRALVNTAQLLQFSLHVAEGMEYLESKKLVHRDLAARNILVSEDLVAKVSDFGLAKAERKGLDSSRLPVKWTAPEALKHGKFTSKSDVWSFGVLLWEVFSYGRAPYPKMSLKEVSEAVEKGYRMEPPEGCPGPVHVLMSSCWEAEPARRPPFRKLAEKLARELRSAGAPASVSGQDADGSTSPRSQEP

[6] = biological target: T2, Mitogen-activated protein kinase kinase kinase 6 (Homo sapiens) (UniProt O95382); assay: Selectivity interaction (KinomeScan (DiscoverX)) EUB0000607a MAP3K6; settings: at 10 µM
T2 sequence (whole entry): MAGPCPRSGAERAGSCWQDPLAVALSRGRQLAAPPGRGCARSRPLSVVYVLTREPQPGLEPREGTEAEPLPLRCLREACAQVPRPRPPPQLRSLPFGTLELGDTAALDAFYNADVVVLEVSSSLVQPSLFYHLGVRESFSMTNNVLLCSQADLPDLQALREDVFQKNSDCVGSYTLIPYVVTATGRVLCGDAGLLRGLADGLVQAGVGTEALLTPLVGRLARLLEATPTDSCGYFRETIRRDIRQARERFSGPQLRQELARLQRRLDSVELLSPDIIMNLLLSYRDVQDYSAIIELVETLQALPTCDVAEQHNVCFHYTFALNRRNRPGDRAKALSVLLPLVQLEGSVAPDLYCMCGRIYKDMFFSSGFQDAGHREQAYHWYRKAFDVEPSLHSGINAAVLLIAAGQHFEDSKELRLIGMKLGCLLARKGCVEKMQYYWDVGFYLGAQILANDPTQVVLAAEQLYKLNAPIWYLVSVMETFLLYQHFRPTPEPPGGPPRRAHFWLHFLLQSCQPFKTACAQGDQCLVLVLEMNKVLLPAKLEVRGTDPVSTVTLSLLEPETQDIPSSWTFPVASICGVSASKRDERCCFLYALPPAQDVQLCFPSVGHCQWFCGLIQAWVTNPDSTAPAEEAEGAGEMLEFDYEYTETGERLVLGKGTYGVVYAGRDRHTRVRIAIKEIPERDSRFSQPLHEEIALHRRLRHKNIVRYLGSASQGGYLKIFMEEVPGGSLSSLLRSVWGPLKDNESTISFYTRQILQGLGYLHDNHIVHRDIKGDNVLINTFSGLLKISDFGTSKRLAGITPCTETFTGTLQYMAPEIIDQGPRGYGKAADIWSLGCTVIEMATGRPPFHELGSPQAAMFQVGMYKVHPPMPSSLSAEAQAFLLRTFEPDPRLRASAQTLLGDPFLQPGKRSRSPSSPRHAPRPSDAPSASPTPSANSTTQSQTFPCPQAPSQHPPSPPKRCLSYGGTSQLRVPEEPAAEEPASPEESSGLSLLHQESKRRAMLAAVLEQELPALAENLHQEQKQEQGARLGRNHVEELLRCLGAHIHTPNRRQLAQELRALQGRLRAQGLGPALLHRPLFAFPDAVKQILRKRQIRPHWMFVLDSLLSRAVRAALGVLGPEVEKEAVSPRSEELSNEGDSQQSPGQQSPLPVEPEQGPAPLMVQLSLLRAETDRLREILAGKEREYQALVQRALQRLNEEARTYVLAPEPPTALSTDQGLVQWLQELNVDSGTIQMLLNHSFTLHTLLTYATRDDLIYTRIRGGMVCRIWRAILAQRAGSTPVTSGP

[7] = biological target: BMP-2-inducible protein kinase (Homo sapiens) (UniProt Q9NSY1); assay: Selectivity interaction (KinomeScan (DiscoverX)) EUB0000595a BMP2K; settings: at 10 µM

Sequence of Phosphatidylinositol 3-kinase catalytic subunit type 3 (Q8NEB9 whole entry): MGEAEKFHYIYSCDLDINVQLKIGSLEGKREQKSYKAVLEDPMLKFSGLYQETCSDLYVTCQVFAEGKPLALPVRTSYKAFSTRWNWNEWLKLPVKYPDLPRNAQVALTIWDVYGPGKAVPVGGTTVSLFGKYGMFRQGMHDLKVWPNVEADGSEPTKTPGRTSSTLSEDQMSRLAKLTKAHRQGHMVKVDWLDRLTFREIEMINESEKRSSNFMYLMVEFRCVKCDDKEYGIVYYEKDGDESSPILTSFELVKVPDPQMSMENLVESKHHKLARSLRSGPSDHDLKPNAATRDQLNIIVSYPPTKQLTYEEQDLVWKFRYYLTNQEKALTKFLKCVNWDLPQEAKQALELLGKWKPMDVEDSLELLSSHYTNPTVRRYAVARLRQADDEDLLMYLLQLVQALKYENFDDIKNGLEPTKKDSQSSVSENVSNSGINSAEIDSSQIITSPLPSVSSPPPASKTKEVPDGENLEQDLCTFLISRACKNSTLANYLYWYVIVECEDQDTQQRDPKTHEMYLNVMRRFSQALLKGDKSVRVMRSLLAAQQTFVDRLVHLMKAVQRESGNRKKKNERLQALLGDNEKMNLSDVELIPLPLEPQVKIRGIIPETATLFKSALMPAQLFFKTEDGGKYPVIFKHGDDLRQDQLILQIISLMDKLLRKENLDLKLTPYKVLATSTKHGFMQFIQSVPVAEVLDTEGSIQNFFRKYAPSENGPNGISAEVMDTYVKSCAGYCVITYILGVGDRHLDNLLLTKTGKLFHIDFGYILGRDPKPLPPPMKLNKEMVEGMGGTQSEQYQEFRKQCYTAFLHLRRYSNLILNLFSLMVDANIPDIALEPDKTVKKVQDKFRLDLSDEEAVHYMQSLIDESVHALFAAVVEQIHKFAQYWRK
Sequence of Myosin light chain kinase, smooth muscle (Q15746 whole entry): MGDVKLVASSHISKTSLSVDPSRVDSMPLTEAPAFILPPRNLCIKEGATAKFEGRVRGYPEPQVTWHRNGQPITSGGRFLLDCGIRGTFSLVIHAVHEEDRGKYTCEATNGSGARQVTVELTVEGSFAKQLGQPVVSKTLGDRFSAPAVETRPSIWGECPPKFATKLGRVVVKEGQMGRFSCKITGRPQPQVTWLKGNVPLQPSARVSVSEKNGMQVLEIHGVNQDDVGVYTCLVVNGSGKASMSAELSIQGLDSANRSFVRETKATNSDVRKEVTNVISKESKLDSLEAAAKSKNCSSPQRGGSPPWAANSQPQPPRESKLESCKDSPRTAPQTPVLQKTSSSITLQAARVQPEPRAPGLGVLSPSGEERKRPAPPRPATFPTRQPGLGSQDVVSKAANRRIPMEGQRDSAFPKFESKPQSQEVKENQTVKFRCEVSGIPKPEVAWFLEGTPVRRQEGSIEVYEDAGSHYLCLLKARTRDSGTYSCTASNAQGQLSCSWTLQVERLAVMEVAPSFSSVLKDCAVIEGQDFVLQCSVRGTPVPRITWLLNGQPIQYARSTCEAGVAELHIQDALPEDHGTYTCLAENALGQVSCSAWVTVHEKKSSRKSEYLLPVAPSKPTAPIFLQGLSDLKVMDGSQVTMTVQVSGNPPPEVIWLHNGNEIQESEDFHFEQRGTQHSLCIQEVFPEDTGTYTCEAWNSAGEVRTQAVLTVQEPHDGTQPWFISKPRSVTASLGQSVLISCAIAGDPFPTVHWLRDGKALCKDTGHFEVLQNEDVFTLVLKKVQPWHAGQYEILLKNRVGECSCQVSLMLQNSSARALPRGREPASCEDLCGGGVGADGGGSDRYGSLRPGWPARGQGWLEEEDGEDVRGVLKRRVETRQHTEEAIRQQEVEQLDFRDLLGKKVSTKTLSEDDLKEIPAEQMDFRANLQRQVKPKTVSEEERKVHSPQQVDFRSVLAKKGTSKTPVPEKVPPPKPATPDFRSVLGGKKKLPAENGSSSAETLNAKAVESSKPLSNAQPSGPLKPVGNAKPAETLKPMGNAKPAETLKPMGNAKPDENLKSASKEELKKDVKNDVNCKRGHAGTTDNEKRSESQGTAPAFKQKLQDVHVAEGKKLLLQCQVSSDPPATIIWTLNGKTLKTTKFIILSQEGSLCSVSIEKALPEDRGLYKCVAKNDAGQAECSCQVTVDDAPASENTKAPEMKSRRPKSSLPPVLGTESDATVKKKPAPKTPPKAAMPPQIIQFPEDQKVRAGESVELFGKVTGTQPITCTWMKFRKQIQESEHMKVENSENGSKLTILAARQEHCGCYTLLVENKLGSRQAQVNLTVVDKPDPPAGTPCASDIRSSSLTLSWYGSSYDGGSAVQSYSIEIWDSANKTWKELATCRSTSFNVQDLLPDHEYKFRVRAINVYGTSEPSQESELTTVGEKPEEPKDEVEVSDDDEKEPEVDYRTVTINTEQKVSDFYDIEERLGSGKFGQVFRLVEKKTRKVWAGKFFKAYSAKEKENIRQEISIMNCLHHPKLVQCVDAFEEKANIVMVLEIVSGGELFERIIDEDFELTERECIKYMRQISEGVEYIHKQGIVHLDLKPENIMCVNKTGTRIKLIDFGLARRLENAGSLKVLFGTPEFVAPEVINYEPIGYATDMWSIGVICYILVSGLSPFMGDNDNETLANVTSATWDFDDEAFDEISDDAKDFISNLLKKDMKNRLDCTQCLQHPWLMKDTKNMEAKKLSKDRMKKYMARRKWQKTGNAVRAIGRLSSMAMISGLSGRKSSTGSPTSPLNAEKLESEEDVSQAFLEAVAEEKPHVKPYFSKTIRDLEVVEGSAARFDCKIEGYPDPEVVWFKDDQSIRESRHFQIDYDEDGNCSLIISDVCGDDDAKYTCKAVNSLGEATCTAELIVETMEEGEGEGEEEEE
Sequence of Transcription intermediary factor 1-alpha (Homo sapiens) (O15164 whole entry): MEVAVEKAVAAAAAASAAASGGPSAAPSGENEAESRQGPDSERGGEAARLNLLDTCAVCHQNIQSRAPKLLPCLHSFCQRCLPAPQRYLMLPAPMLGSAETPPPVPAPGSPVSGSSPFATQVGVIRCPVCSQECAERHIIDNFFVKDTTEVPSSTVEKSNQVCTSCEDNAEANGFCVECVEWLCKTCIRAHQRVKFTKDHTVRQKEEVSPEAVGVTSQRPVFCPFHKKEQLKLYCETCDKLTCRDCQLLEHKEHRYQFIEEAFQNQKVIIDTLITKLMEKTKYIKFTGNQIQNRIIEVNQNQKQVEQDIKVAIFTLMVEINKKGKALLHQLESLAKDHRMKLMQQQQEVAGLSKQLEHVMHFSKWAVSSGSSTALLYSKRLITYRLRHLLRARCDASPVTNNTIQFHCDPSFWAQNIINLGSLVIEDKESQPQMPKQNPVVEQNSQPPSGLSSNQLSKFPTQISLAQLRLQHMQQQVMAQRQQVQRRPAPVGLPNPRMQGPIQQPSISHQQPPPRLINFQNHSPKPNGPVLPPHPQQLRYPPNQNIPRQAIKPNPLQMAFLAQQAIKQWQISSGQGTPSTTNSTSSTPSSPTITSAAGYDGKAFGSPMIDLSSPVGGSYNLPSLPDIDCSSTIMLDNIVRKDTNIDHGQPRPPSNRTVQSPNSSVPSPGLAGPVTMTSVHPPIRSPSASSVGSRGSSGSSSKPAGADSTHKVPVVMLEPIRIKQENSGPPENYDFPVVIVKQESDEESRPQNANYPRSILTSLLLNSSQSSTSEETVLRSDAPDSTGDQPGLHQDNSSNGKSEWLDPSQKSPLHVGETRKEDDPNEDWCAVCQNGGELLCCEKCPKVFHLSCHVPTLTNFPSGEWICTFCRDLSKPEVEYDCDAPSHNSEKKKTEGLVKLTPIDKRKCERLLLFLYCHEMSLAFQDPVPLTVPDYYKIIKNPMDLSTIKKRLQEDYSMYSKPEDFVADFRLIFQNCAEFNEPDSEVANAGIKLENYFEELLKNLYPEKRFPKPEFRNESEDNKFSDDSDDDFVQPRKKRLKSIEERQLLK
Sequence of Cyclin-dependent kinase 5/CDK5 activator 1 (Homo sapiens) (Q00535 whole entry): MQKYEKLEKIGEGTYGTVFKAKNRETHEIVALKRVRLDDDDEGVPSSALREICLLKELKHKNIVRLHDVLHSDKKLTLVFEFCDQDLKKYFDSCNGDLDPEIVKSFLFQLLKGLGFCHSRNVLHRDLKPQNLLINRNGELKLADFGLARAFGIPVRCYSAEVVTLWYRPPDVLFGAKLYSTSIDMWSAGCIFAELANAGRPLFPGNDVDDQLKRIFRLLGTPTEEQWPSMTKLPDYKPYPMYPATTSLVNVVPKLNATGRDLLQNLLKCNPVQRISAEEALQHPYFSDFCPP
Sequence of Cyclin-dependent kinase 5/CDK5 activator 1 (Homo sapiens) (Q15078 99-307 partner limits assumed): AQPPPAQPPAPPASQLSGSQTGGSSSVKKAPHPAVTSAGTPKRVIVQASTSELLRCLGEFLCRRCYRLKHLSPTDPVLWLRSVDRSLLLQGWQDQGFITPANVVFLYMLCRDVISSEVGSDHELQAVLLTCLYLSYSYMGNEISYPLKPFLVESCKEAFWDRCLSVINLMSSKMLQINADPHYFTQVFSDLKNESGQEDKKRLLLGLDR

SMILES: C=CC(=O)Nc1cccc(C(=O)Nc2ccc(Nc3cc(-c4[nH]c(SC)nc4C)ccn3)cc2)c1
- % of control ([1]; at 1 µM): 108%
- % of control ([1]; at 5 µM): 103%

SMILES: Nc1cnc(N2CCc3cc(S(=O)(=O)Nc4c(F)cc(Cl)cc4F)cc(N4CCCC4=O)c32)nc1 [TP-020n]
- % of control [2]: 91%

SMILES: CN(C)CCCOc1ccc(-c2cc(NCCCn3cccn3)nc(S(C)(=O)=O)n2)cc1
- dTM [3]: < 2 K

SMILES: Cn1cc(-n2cnc3c(NCc4nc5cc(Cl)c(Cl)cc5[nH]4)nc(N4CCOCC4)nc32)cn1
- % of control [4]: 5.78%
- % of control [5]: 7.05%

SMILES: CNC(=O)Nc1ccc(-c2nc(N3CC4CCC(C3)O4)c3cnn(C4CCC5(CC4)OCCO5)c3n2)cc1
- % of control [6]: 80%

SMILES: COCC(=O)NC/C=C/c1ccc2ncnc(Nc3ccc(Oc4ccc(C)nc4)c(C)c3)c2c1 [CP-724714]
- % of control [7]: 73%
